Measured values taken from publication PMC10819243 (Pharmaceutics, 2024).
Like-named read-outs stand apart in the source and are kept apart here.

Key:
[1] = test system: HDF (normal fibroblast cell line); assay: MTT assay, HDF; assay type: cell-based, human; settings: MTT assay, HDF normal fibroblast cell line, (±s) standard deviation
A-549 = assay: MTT assay, A-549; assay type: cell-based; settings: for IC50: Homo sapiens, A549, MTT assay, A-549 lung carcinoma, (±s) standard deviation; for Selectivity Index A-549: IC50 for normal cell line (HDF)/IC50 for A-549
KB = assay: MTT assay, KB; assay type: cell-based; settings: for IC50: Homo sapiens, MTT assay, KB nasopharynx carcinoma, (±s) standard deviation; for Selectivity Index KB: IC50 for normal cell line (HDF)/IC50 for KB
MCF-7 = assay: MTT assay, MCF-7; assay type: cell-based; settings: for IC50: Homo sapiens, MCF7, MTT assay, MCF-7 breast carcinoma, (±s) standard deviation; for Selectivity Index MCF-7: IC50 for normal cell line (HDF)/IC50 for MCF-7
[2] = test system: HeLa, KB, MCF-7, A-549 and HDF cell lines; assay: MTT assay, statements over several tested cell lines; assay type: cell-based; settings: for times less active than mother OA (1): over the tested cell lines
HeLa = assay: MTT assay, HeLa; assay type: cell-based; settings: for IC50: Homo sapiens, MTT assay, HeLa cervix carcinoma, (±s) standard deviation; for Selectivity Index HeLa: IC50 for normal cell line (HDF)/IC50 for HeLa
[3] = one approximate value or range for the four cancer cell lines, apart from HDF, read-out: IC50 for HeLa, KB, MCF-7, and A-549 cancer cell lines
[4] = ratio of IC50 values vs oleanolic acid (1)
[5] = summary over the tested cell lines, read-out: IC50 values for the tested cell lines (range or summary)

| SMILES | IC50 ([1]; Homo sapiens, Fibroblast) [µM] | IC50 (A-549) [µM] | Selectivity Index A-549 (A-549) | IC50 (KB) [µM] | Selectivity Index KB (KB) | IC50 (MCF-7) [µM] | Selectivity Index MCF-7 (MCF-7) | IC50 [2, 3] [µM] | IC50 [1] [µM] | IC50 (HeLa) [µM] | Selectivity Index HeLa (HeLa) | fold as active as OA (1), KB (KB; [4]) | fold as active as OA (1), MCF-7 (MCF-7; [4]) | IC50 [2, 5] [µM] | times less active than mother OA (1) [2] | IC50 values for the tested cell lines (range or summary) ([2]; summary over the tested cell lines) |
| --- | --- | --- | --- | --- | --- | --- | --- | --- | --- | --- | --- | --- | --- | --- | --- | --- |
| CC1(C)CC[C@]2(C(=O)O)CC[C@]3(C)C(=CC[C@@H]4[C@@]5(C)CC[C@H](O)C(C)(C)[C@@H]5CC[C@]43C)[C@@H]2C1 [Compound 1, oleanolic acid, reference compound] | 17.9 |  |  |  |  |  |  |  |  |  |  |  |  |  |  |  |
| COC(=O)[C@]12CCC(C)(C)CC1C1=CC(=O)C3[C@@]4(C)CC/C(=N\OC(=O)c5cccc([N+](=O)[O-])c5)C(C)(C)C4CC[C@@]3(C)[C@]1(C)CC2 (stereo partly shown) [Compound 6e, 3-(3′-Nitro)benzoxyimino-11-oxoolean-12-en-28-oic acid methyl ester] | ~97 | 74 | 1.31 | 70 | 1.39 | 75 | 1.29 | 70 to 74 | 97 | 71.2 | 1.36 |  |  |  |  |  |
| COC(=O)C12CCC(C)(C)CC1C1=CCC3C4(C)CCC(=NO)C(C)(C)C4CCC3(C)C1(C)CC2 (stereo not shown) [Compound 2, methyl oleanonate oxime] | 21.1 | 13 | 1.62 |  | 1.70 |  | 1.38 |  |  |  | 1.60 |  |  |  |  |  |
| COC(=O)[C@]12CCC(C)(C)CC1C1=CCC3[C@@]4(C)CC/C(=N\OC(C)=O)C(C)(C)C4CC[C@@]3(C)[C@]1(C)CC2 (stereo partly shown) [Compound 5a, 3-Acetoxyiminoolean-12-en-28-oic acid methyl ester] | 29 | 10.6 | 2.74 | 11.4 | 2.55 | 10.5 | 2.76 |  |  | 11.1 | 2.62 | about 1.3 fold | about 1.3 fold |  |  |  |
| CC1(C)CC[C@]2(C(=O)N3CCOCC3)CC[C@]3(C)C(=CCC4[C@@]5(C)CC/C(=N\OC(=O)c6ccc([N+](=O)[O-])cc6)C(C)(C)C5CC[C@]43C)C2C1 (stereo partly shown) [Compound 7f, 3-(4′-Nitro)benzoxyiminoolean-12-en-28-oic acid morpholide] | 85.1 | 62.9 | 1.35 | 61.5 | 1.38 | 57.2 | 1.49 |  |  | 60 | 1.42 |  |  | 40 to 66 |  |  |
| CC1(C)CC[C@]2(C(=O)N3CCOCC3)CC[C@]3(C)C(=CCC4[C@@]5(C)CC/C(=N\OC(=O)c6ccccc6)C(C)(C)C5CC[C@]43C)C2C1 (stereo partly shown) [Compound 7d, 3-Benzoxyiminoolean-12-en-28-oic acid morpholide] | 66.2 | 46.8 | 1.41 | 45.9 | 1.44 | 41.7 | 1.58 |  |  | 45.3 | 1.46 |  |  | 40 to 66 |  |  |
| CCC(=O)O/N=C1\CC[C@@]2(C)C(CC[C@]3(C)C2CC=C2C4CC(C)(C)CC[C@]4(C(=O)N4CCOCC4)CC[C@]23C)C1(C)C (stereo partly shown) [Compound 7c, 3-Propionoxyimino-olean-12-en-28-oic acid morpholide] | 179 | 148 | 1.21 | 150 | 1.20 | 153 | 1.17 |  |  | 143 | 1.27 |  |  | 140 to 180 |  |  |
| COC(=O)[C@]12CCC(C)(C)CC1C1=CCC3[C@@]4(C)CC/C(=N\OC(=O)CCl)C(C)(C)C4CC[C@@]3(C)[C@]1(C)CC2 (stereo partly shown) [Compound 5b, 3-Chloroacetoxyiminoolean-12-en-28-oic acid methyl ester] | 37 | 19.8 | 1.87 | 18.4 | 2.01 | 18 | 2.05 |  |  | 19.8 | 1.87 |  |  |  | 1.7–2.2 fold |  |
| CCC(=O)O/N=C1\CC[C@@]2(C)C(CC[C@]3(C)C2C(=O)C=C2C4CC(C)(C)CC[C@]4(C(=O)OC)CC[C@]23C)C1(C)C (stereo partly shown) [Compound 6c, 3-Propionoxyimino-11-oxoolean-12-en-28-oic acid methyl ester] | ~50 | 24.2 | 2.03 | 24.8 | 1.97 | 23 | 2.13 | ~24 | 49 | 24 | 2.04 |  |  |  |  |  |
| COC(=O)[C@]12CCC(C)(C)CC1C1=CCC3[C@@]4(C)CC/C(=N\OC(=O)c5cccc([N+](=O)[O-])c5)C(C)(C)C4CC[C@@]3(C)[C@]1(C)CC2 (stereo partly shown) [Compound 5e] | 38 | 21.1 | 1.80 | 23.9 | 1.59 | 21.8 | 1.74 |  |  | 20.1 | 1.88 |  |  | 20.1 to 38 |  |  |
| COC(=O)[C@]12CCC(C)(C)CC1C1=CCC3[C@@]4(C)CC/C(=N\OC(=O)c5ccccc5)C(C)(C)C4CC[C@@]3(C)[C@]1(C)CC2 (stereo partly shown) [Compound 5d, 3-Benzoxyiminoolean-12-en-28-oic acid methyl ester] | 113 | 73.9 | 1.53 | 83.2 | 1.36 | 83.3 | 1.36 |  |  | 84.9 | 1.33 |  |  | 73.9 to 113 |  |  |
| CC1(C)CC[C@]2(C(=O)N3CCOCC3)CC[C@]3(C)C(=CCC4[C@@]5(C)CC/C(=N\OC(=O)c6cccc([N+](=O)[O-])c6)C(C)(C)C5CC[C@]43C)C2C1 (stereo partly shown) [Compound 7e, 3-(3′-Nitro)benzoxyiminoolean-12-en-28-oic acid morpholide] | 28 | 13.8 | 2.03 | 13.9 | 2.02 | 10.2 | 2.75 |  |  | 12.1 | 2.32 |  |  |  |  | comparable to those of OA (1) |
| COC(=O)[C@]12CCC(C)(C)CC1C1=CC(=O)C3[C@@]4(C)CC/C(=N\OC(=O)CCl)C(C)(C)C4CC[C@@]3(C)[C@]1(C)CC2 (stereo partly shown) [Compound 6b, 3-Chloroacetoxyimino-11-oxoolean12-en-28-oic acid methyl ester] | 88 | 61.8 | 1.42 | 61 | 1.44 | 64.1 | 1.37 | 61 to 64 |  | 61 | 1.44 |  |  |  |  |  |
| CCC(=O)O/N=C1\CC[C@@]2(C)C(CC[C@]3(C)C2CC=C2C4CC(C)(C)CC[C@]4(C(=O)OC)CC[C@]23C)C1(C)C (stereo partly shown) [Compound 5c, 3-Propionoxyiminoolean-12-en-28-oic acid methyl ester] | 39.9 | 36.2 | 1.10 | 38.8 | 1.03 | 38.1 | 1.05 |  |  | 38.1 | 1.05 |  |  |  | 2.2–4.1 fold |  |
| COC(=O)[C@]12CCC(C)(C)CC1C1=CCC3[C@@]4(C)CC/C(=N\OC(=O)c5ccc([N+](=O)[O-])cc5)C(C)(C)C4CC[C@@]3(C)[C@]1(C)CC2 (stereo partly shown) [Compound 5f, 3-(4′-Nitro)benzoxyiminoolean-12-en-28-oic acid methyl ester] | 132 | 69.9 | 1.89 | 60.7 | 2.18 | 61.4 | 2.15 |  |  | 62 | 2.13 |  |  | 60.7 to 132 |  |  |
| COC(=O)[C@]12CCC(C)(C)CC1C1=CC(=O)C3[C@@]4(C)CC/C(=N\OC(C)=O)C(C)(C)C4CC[C@@]3(C)[C@]1(C)CC2 (stereo partly shown) [Compound 6a, 3-Acetoxyimino-11-oxoolean-12-en-28-oic acid methyl ester] | ~49 | 28.2 | 1.74 | 27.9 | 1.76 | 28 | 1.75 | ~28 | 49.1 | 27.4 | 1.79 |  |  |  |  |  |
| COC(=O)[C@]12CCC(C)(C)CC1C1=CC(=O)C3[C@@]4(C)CC/C(=N\OC(=O)c5ccc([N+](=O)[O-])cc5)C(C)(C)C4CC[C@@]3(C)[C@]1(C)CC2 (stereo partly shown) [Compound 6f, 3-(4′-Nitro)benzoxyimino-11-oxoolean-12-en-28-oic acid methyl ester] | 37.2 | 28.1 | 1.32 | 26.3 | 1.41 | 26 | 1.43 |  |  | 28.3 | 1.31 |  |  |  |  |  |
